{"source": "patent US12016860B2", "about": "“Combination therapies with Cbl-b inhibitor compounds” (Nurix Therapeutics, Inc., priority 2021, dated 2024)", "key": {"[1]": {"tested_on": "BT549 (BRCA wild type) cells", "test": "Caspase 3/7 apoptosis Incucyte assay with olaparib, BT549", "format": "cell-based", "details": "1 μM compound 23, 0.05 μM olaparib, vs 0.05% DMSO, combination also vs single agents p<0.0001", "description": "(§1) BT549 (BRCA wild type) (A) and DoTc 4510 (BRCA2 mutated) (B) cells were seeded in duplicate into tissue culture treated black-sided, clear-bottom 96-well plates at 5,000^cells/well and allowed to adhere and establish for 24 h. Cells were treated with indicated concentrations of DMSO, compound 23, or Olaparib (FIGS. 13A and 13B) either alone or in combination and were labelled with 1× Essen Bioscience IncuCyte® Caspase-3/7 Green Reagent (final concentration 5 μM). Treated plates were imaged every 2 hours for 72 hours with the IncuCyte® S3 Live-Cell Analysis System. At each timepoint, one image per well was taken in both brightfield and FITC channels on the IncuCyte® S3 Live-Cell Analysis System. Images were analyzed for number of green objects per mm^2 using the IncuCyte S3 v2017A software.\nUsing a caspase 3/7 apoptosis Incucyte assay, the effect of compound 23, PARPi and the combination of compound 23, and PARPi on tumor cell apoptosis was assessed in both BRCA wild type and mutated tumor cell lines in vitro."}, "[2]": {"tested_on": "DoTc 4510 (BRCA2 mutated) cells", "test": "Caspase 3/7 apoptosis Incucyte assay with olaparib, DoTc 4510", "format": "cell-based", "details": "vs 0.05% DMSO, combination also vs single agents p<0.0001", "description": "as §1"}, "[3]": {"tested_on": "BT549 tumor cell line", "test": "Caspase 3/7 apoptosis Incucyte assay with paclitaxel, BT549", "format": "cell-based", "details": "0.1 μM compound 23, 0.002 μM paclitaxel, vs 0.05% DMSO, combination also vs single agents p<0.0001", "description": "as §1, with “BT549” for “BT549 (BRCA wild type) (A) and DoTc 4510 (BRCA2 mutated) (B)”, “5,000 ^cells/well” for “5,000^cells/well”, “with” for “with indicated concentrations of”, “Paclitaxel” for “Olaparib (FIGS. 13A and 13B)”, “48” for “72”\nUsing a caspase 3/7 apoptosis Incucyte® assay, the effect of compound 23, paclitaxel and the combination of compound 23 and paclitaxel on tumor cell apoptosis was assessed in the BT549 tumor cell line (a mammary gland carcinoma) in vitro."}, "[4]": {"tested_on": "Raji cells", "test": "Raji human non-Hodgkin's lymphoma model in SCID mice, combination with rituximab", "procedure": "Female CB17 mice with severe combined immunodeficiency (SCID) were intravenously (IV) injected in the tail vein with Raji cells on Day 0 and treated from Day 5 to Day 37 by administration of either: vehicle (0.5% methylcellulose, 0.2% Polysorbate 80 in deionized water+1 eq HCl) daily, orally (PO) or compound 23 at 30 mg/kg daily, PO. Anti-CD20 antibody (rituximab) at 20 mg/kg was intraperitoneally (IP) administered on Day 5, 10, and 15, either alone or in combination with compound 23 at 30 mg/kg daily, PO."}}}
{"compound": "O=C(c1cc(Cc2n[nH]c(=O)c3ccccc23)ccc1F)N1CCN(C(=O)C2CC2)CC1", "note": "[olaparib, reference compound]", "values": [{"measurement": "tumor cell apoptosis (caspase 3/7)", "setting": "[1]", "result": "did not undergo a significant increase in apoptosis"}, {"measurement": "tumor cell apoptosis (caspase 3/7)", "setting": "[2]", "result": "did not significantly increase tumor cell apoptosis"}]}
{"compound": "CC(=O)O[C@H]1C(=O)[C@@]2(C)[C@H]([C@H](OC(=O)c3ccccc3)[C@]3(O)C[C@H](OC(=O)[C@H](O)[C@@H](NC(=O)c4ccccc4)c4ccccc4)C(C)=C1C3(C)C)[C@]1(OC(C)=O)CO[C@@H]1C[C@@H]2O", "note": "[paclitaxel, reference compound]", "values": [{"measurement": "tumor cell apoptosis (caspase 3/7)", "setting": "[3]", "result": "did not undergo a significant increase in apoptosis"}]}
{"compound": "rituximab [reference compound]", "values": [{"measurement": "survival compared to untreated mice", "setting": "[4]; compound 23 30 mg/kg daily PO, rituximab 20 mg/kg IP Day 5, 10, 15, p<0.0001", "result": "significantly higher"}, {"measurement": "survival compared to mice treated with the combination of compound 23 and rituximab", "setting": "[4]; p<0.0001", "result": "significantly lower"}]}
